Data from article PMC7669869, “AdipoR1/AdipoR2 dual agonist recovers nonalcoholic steatohepatitis and related fibrosis via endoplasmic reticulum-mitochondria axis” (Nature Communications, 2020).
“And” between values parts separate entries of the source, which are not always exact repeats. Equal entries are not always repeated. Non-standard residues stand in square brackets, D forms with d. Residues, ends and D or L forms follow the SMILES beside them. Nva = CCC[C@H](N)C(=O)O

Assays:
[1] = test system: HFD induced NASH mice; test: HFD mice: serum and liver biochemical assays (ALT, FFA, LDL-C, hepatic TG, glycogen); type: in vivo, mouse
Experimental: Male C57BL/6J mice of 6–8 weeks of age (20–24 g) were used in these experiments including the NAFLD model and liver fibrosis model. The mice were purchased from Guangdong Medical Laboratory Animal Center and housed in standard isolator cages and maintained on a room temperature of 25 °C and a 12 h:12 h light/dark cycle. At the end of the experiments, mice were fasted 8 h prior to sacrifice. Liver tissue and/or epididymal adipose tissue were flash frozen in liquid nitrogen (with or without RNAlater (TransGen Biotech, China)) and stored at −80 °C for future use, or fixed in 10% paraformaldehyde for histological assays. Blood samples were obtained from the posterior venous plexus of the eyes of anesthetized mice, Blood was separated by centrifugation at 1000g for 15 min Serum was then stored at −80 °C. The ethical approval has been obtained from Animal Care and Use Committee of the Sun Yat-sen University. All animals were maintained in pathogen-free conditions and cared for in accordance with policies and certification of the Association for Assessment and Accreditation of Laboratory Animal Care International (AAALAC International).
The NASH model was conducted with feeding a HFD for 16 weeks combine with a MCD diet (Methionine/Choline Deficient Diet, Medicience, China) in the last 4 weeks. […]
The levels of ALT, AST, TC and TG in serum were determined using certain commercial assay kits (Nanjing Jiancheng Bioengineering Institute, China). Fasting adiponectin and insulin were quantified in plasma samples using corresponding commercially available Elisa kits (Cloud-Clone Crop, USA).
(§1) The levels of TG and HYP in liver tissue were detected with certain commercial assay kit (Nanjing Jiancheng Bioengineering Institute, China). […] The cryostat-cut slices were stained with freshly prepared Oil Red O working solution for 7 min Two independent experimenters who were blinded to the treatment evaluated the staining slides and analyzed the score for steatosis, glucogen accumulation and collagen proliferation area.

[2] = test system: liver gene expression of HFD induced NASH mice; test: HFD mice: liver mRNA, quantitative RT-PCR; type: in vivo, mouse; details: for CD14 liver mRNA, relative expression, Supplementary Figure 11b / F4/80 liver mRNA, relative expression, Supplementary Figure 11b / IL-1b liver mRNA, relative expression, Supplementary Figure 11b / IL-6 liver mRNA, relative expression, Supplementary Figure 11b / LY6G liver mRNA, relative expression, Supplementary Figure 11b / iNOS liver mRNA, relative expression, Supplementary Figure 11b: HFD + JT003 mice
Experimental: (§2) The NASH model was conducted with feeding a HFD for 16 weeks combine with a MCD diet (Methionine/Choline Deficient Diet, Medicience, China) in the last 4 weeks. Mice administered a MCS diet (Methionine/Choline Sufficient Diet, Medicience, China) serves as control group. NAFLD or NASH mice treated with JT003 for 4 weeks were used to evaluate the pharmacological effects (n = 6; 500 μg kg^−1; daily intraperitoneal injection). Food and water were provided ad libitum. The body weight of mice was examined every 3 days. The diet was renewed every 7 days. JT003 was diluted in PBS.
Liver total RNA was extracted by using Trizol reagent following the manufacture’s instruction (TransGen Biotech, China). The concentration of RNA was measured by Nanodrop 2000 (ThermoFisher Scientific, USA). cDNA was transcribed from 10ug total RNA with First Strand cDNA synthesis Super Mix (TransGen Biotech, China). The cDNA was diluted 1/50 and 1.0 uL were used as a template for qPCR. qPCR was performed with SYBR Green qPCR Super Mix (TransGen Biotech, China) in the Light Cycler 480 Real-Time PCR System (Roche, Swiss). Reference gene β-actin was used for data normalization. mRNA expression was analyzed with specific primers listed in Supplementary Table 2.

[3] = test system: HFD + MCD diet NASH mice; test: HFD combined with MCD diet NASH mice: weight gain, HE steatosis area; type: in vivo, mouse; details: HFD 16 weeks + MCD diet last 4 weeks; compared with ADP355; in words
Experimental: as §2
as §1, with “China). Formalin-fixed liver tissues were embedded in paraffin, sectioned into 5 μm slices. After deparaffinization and rehydration of the section slices, they were stained with Haematoxylin and Eosin or Periodic Acid-Schiff. For the detection of liver collagen content, Sirius Red staining for collagen was performed.” for “China).”

[4] = Pharmacokinetic assay in SD rats; type: in vivo, rat
Experimental: Male SpragueDawley (SD) rats were randomly divided into two groups (n = 3 per group) and received a single intravenous dose of JT003 (0.5 mg/kg) or ADP355 (1.0 mg kg^−1) respectively. Blood samples were collected at 5, 15, 30, 45 min and 1, 2, 3 h following the injection, and then were immediately centrifuged (4000g, 10 min, 4 °C) to obtain plasma samples. Plasma concentrations of the two peptides were measured by LC-MS/MS (ThermoFisher Scientific, USA). Pharmacokinetic parameters of JT003 and ADP355 were calculated using non-compartmental analysis in Phoenix WinNonlin (version 8.0, Pharsight, USA). The concentration values less than the LLOQ were set to zero for the analysis.

[5] = HFD mice, liver, JT003 500 μg kg−1, in words
[6] = Sprague-Dawley, rat, male SD rats, single iv dose: JT003 0.5 mg/kg, ADP355 1.0 mg/kg, plasma, LC-MS/MS, non-compartmental, Mean ± SD, n = 3-6

CCC[C@H](NC(=O)[C@@H]1CCCN1)C(=O)N[C@@H](CC(C)C)C(=O)N[C@@H](Cc1ccc(O)cc1)C(=O)N[C@@H](Cc1ccc(O)cc1)C(=O)N[C@@H](Cc1ccccc1)C(=O)N[C@@H](C)C(N)=O [JT003] (H-P[Nva]LYYFA-NH2)
decrease of the circulating lipid in the HFD group ([1]; JT003 500 μg kg−1, in words): reverted | Hepatocytes TG and serum LDL-C contents ([1]; JT003 500 μg kg−1 i.p. daily 4 weeks, in words): obviously reduced | ALT level ([1]; JT003 500 μg kg−1 i.p. daily 4 weeks, vs HFD, in words): reduced | CD14 liver mRNA, relative expression, Supplementary Figure 11b ([2]; replicate 1): 0.836 | F4/80 liver mRNA, relative expression, Supplementary Figure 11b ([2]; replicate 1): 1.324 | IL-1b liver mRNA, relative expression, Supplementary Figure 11b ([2]; replicate 1): 0.2358 | IL-6 liver mRNA, relative expression, Supplementary Figure 11b ([2]; replicate 1): 0.3838 | LY6G liver mRNA, relative expression, Supplementary Figure 11b ([2]; replicate 1): 1.539 | iNOS liver mRNA, relative expression, Supplementary Figure 11b ([2]; replicate 1): 0.7587 | CD14 liver mRNA, relative expression, Supplementary Figure 11b ([2]; replicate 2): 0.7038 | F4/80 liver mRNA, relative expression, Supplementary Figure 11b ([2]; replicate 2): 1.41 | IL-1b liver mRNA, relative expression, Supplementary Figure 11b ([2]; replicate 2): 0.3558 | IL-6 liver mRNA, relative expression, Supplementary Figure 11b ([2]; replicate 2): 0.9338 | LY6G liver mRNA, relative expression, Supplementary Figure 11b ([2]; replicate 2): 2.089 | iNOS liver mRNA, relative expression, Supplementary Figure 11b ([2]; replicate 2): 1.076 | CD14 liver mRNA, relative expression, Supplementary Figure 11b ([2]; replicate 3): 0.548 | F4/80 liver mRNA, relative expression, Supplementary Figure 11b ([2]; replicate 3): 0.6014 | IL-1b liver mRNA, relative expression, Supplementary Figure 11b ([2]; replicate 3): 0.1532 | IL-6 liver mRNA, relative expression, Supplementary Figure 11b ([2]; replicate 3): 0.2832 | LY6G liver mRNA, relative expression, Supplementary Figure 11b ([2]; replicate 3): 0.8264 | iNOS liver mRNA, relative expression, Supplementary Figure 11b ([2]; replicate 3): 1.076 | CD14 liver mRNA, relative expression, Supplementary Figure 11b ([2]; replicate 4): 0.7504 | F4/80 liver mRNA, relative expression, Supplementary Figure 11b ([2]; replicate 4): 1.0118 | IL-1b liver mRNA, relative expression, Supplementary Figure 11b ([2]; replicate 4): 0.1494 | IL-6 liver mRNA, relative expression, Supplementary Figure 11b ([2]; replicate 4): 0.2961 | LY6G liver mRNA, relative expression, Supplementary Figure 11b ([2]; replicate 4): 2.4 | iNOS liver mRNA, relative expression, Supplementary Figure 11b ([2]; replicate 4): 0.5084 | CD14 liver mRNA, relative expression, Supplementary Figure 11b ([2]; replicate 5): 0.8521 | F4/80 liver mRNA, relative expression, Supplementary Figure 11b ([2]; replicate 5): 0.7678 | IL-1b liver mRNA, relative expression, Supplementary Figure 11b ([2]; replicate 5): 0.1331 | IL-6 liver mRNA, relative expression, Supplementary Figure 11b ([2]; replicate 5): 0.3878 | iNOS liver mRNA, relative expression, Supplementary Figure 11b ([2]; replicate 5): 1.435 | F4/80 liver mRNA, relative expression, Supplementary Figure 11b ([2]; replicate 6): 1.044 | IL-6 liver mRNA, relative expression, Supplementary Figure 11b ([2]; replicate 6): 0.3111 | G6Pase expression level in liver ([2]; HFD mice, JT003 500 μg kg−1, compared to HFD mice, in words): significantly elevated | expression of antioxidant enzymes (SOD and CAT) and mitochondrial biogenesis regulators (PGC1α and PGC1β) [2, 5]: accelerated prominently | expression of genes related to fatty acid synthesis (PPARγ, ACC1, FASN, DGAT1, FAS, SCD1, ASCL3), fatty acid uptake (CD36) and cholesterol synthesis (HMGCR, SREBP-1C) [2, 5]: significantly inhibited | expression of genes responsible for fatty acid β-oxidation (LCAD, MCAD, UCP2, CPT1α) [2, 5]: much higher | overexpression of genes related to inflammation (LY6G, F4/80, IL-6, IL-1β, iNOS, CD14) and ER stress (XBP1, ATF4, CHOP, BID and GRP78) [2, 5]: suppressed significantly | upregulation of genes related to mitochondrial dysfunction (CYP2E1, BAX, NQO1, SRXN1 and GPX1) [2, 5]: suppressed remarkably | lipid accumulation in HFD combine with MCD diet NASH mouse model [3]: inhibited lipid accumulation significantly with a 20 times lower dosage | AUC(0-inf) [4, 6]: 20.9 ± 1.63 ng·h/mL | AUC(0-t) [4, 6]: 19.4 ± 1.51 ng·h/mL | MRT [4, 6]: 1.04 ± 0.03 h | clearance [4, 6]: 401 mL/min/kg | Vd ([4]; Sprague-Dawley, rat, male SD rats, single iv dose: JT003 0.5 mg/kg, ADP355 1.0 mg/kg, plasma, LC-MS/MS, non-compartmental, Mean ± SD, n = 3-6, read-out: V): 26 ± 2.29 L/kg | t1/2 ([4]; male SD rats, single iv dose: JT003 0.5 mg/kg, ADP355 1.0 mg/kg, plasma, LC-MS/MS, non-compartmental, Mean ± SD, n = 3-6 (n = 3 per group)): 45 ± 0.6 min and 45 min | improved circulating half-life vs the predecessor compound (ADP355) ([4]; reviewer's reading of the PK experiment): 7-8 fold
